In ChEMBL document CHEMBL1201862, “PubChem BioAssay data set” (2004):
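Cells were grown in 96-well plates and exposed to each compound for 48 hours at five concentrations; endpoints were interpolated linearly between bracketing concentrations, or set to the highest concentration if not reached. Abbreviation: GI50, concentration required for 50% inhibition of growth.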 Activity calls are given as the source filed them. Cut-off read from the data, not from the text of the source: active = GI50 up to about 1.1 µM and inactive = higher.

Experiments:
Test in all cases: inhibition of tumour cell growth, NCI panel, 48 h
A549 = test system: A549
ACHN = test system: ACHN
CCRF-CEM = test system: CCRF-CEM
HCT-116 = test system: HCT-116
HL-60 = test system: HL-60
IGROV-1 = test system: IGROV-1
MDA-N = test system: MDA-N
NCI-H226 = test system: NCI-H226
NCI/ADR-RES = test system: NCI/ADR-RES
OVCAR-5 = test system: OVCAR-5
SF-268 = test system: SF-268
SK-MEL-28 = test system: SK-MEL-28
SK-OV-3 = test system: SK-OV-3
SN12C = test system: SN12C
SR = test system: SR
TK-10 = test system: TK-10
UACC-257 = test system: UACC-257
UO-31 = test system: UO-31

Compound | GI50 (A549) | GI50 (ACHN) | GI50 (CCRF-CEM) | GI50 (HCT-116) | GI50 (HL-60) | GI50 (IGROV-1) | GI50 (MDA-N) | GI50 (NCI-H226) | GI50 (NCI/ADR-RES) | GI50 (OVCAR-5) | GI50 (SF-268) | GI50 (SK-MEL-28) | GI50 (SK-OV-3) | GI50 (SN12C) | GI50 (SR) | GI50 (TK-10) | GI50 (UACC-257) | GI50 (UO-31)
CC(C)(C)c1cc(Br)c(O)c(CN(Cc2cc(C(C)(C)C)cc(Br)c2O)C2CCCCC2)c1 | 14.1 µM (inactive) | 14.9 µM (inactive) | 13.3 µM (inactive) | 12.5 µM (inactive) | 17.6 µM (inactive) | 15.3 µM (inactive) | 14.5 µM (inactive) | 15.6 µM (inactive) | 12 µM (inactive) | 15.7 µM (inactive) | 13.5 µM (inactive) | 15.5 µM (inactive) | 15.8 µM (inactive) | 14.8 µM (inactive) | 10.1 µM (inactive) | 15.8 µM (inactive) | 4.14 µM (inactive) | 14.4 µM (inactive)
CCN1CN(c2ccccc2)C2(CCN(CC3COc4ccccc4O3)CC2)C1=O (centres undefined) | 36.6 µM (inactive) | 23.1 µM (inactive) | 18.4 µM (inactive) | 17.6 µM (inactive) | 16.1 µM (inactive) | 53.7 µM (inactive) | 2.28 µM (inactive) | 24 µM (inactive) | 37.2 µM (inactive) | 24.3 µM (inactive) | 42.5 µM (inactive) | 32.5 µM (inactive) | 28.6 µM (inactive) | 41.5 µM (inactive) | 5.13 µM (inactive) | 25.8 µM (inactive) | 35.3 µM (inactive) | 29 µM (inactive)
CCCC(=O)OC1CC(n2cc(F)c(=O)[nH]c2=O)OC1COP(=O)(OCC(Cl)(Cl)Cl)OCC(Cl)(Cl)Cl (centres undefined) | 0.461 µM (active) | 0.147 µM (active) | 0.372 µM (active) | 3.18 µM (inactive) | 10.8 µM (inactive) | 14.8 µM (inactive) | 7.01 µM (inactive) | 65.2 µM (inactive) | 1.17 µM (inactive) | 28.4 µM (inactive) | 0.766 µM (active) | 12.3 µM (inactive) | 12.4 µM (inactive) | 22 µM (inactive) | 1.25 µM (inactive) | 22.5 µM (inactive) | 21.7 µM (inactive) | 0.49 µM (active)
COc1cccc(/C=C/c2cnc3ccccc3n2)c1OC | 40.7 µM (inactive) | 50.1 µM (inactive) | 35.6 µM (inactive) | 30.1 µM (inactive) | 34.4 µM (inactive) | 39.1 µM (inactive) | 61.1 µM (inactive) | 37.2 µM (inactive) | 18.5 µM (inactive) | 72.6 µM (inactive) | 31.3 µM (inactive) | 44.2 µM (inactive) | 71.6 µM (inactive) | 39.5 µM (inactive) | > 100 µM (inactive) | 50.5 µM (inactive) | 37.4 µM (inactive) | 34.1 µM (inactive)
Clc1nc(Cl)c(-c2ccccc2)c(Cl)n1 | 17.1 µM (inactive) | 0.29 µM (active) | 2.27 µM (inactive) | 1.84 µM (inactive) | 2.15 µM (inactive) | 4.92 µM (inactive) | 2.49 µM (inactive) | 2.3 µM (inactive) | 3.42 µM (inactive) | 4.61 µM (inactive) | 3.19 µM (inactive) | 5.96 µM (inactive) | 11.2 µM (inactive) | 3.14 µM (inactive) | 2.48 µM (inactive) | 10.1 µM (inactive) | 2.82 µM (inactive) | 4.61 µM (inactive)
CC(C)/C(Cl)=N/OC(=O)Nc1cccc(C(F)(F)F)c1 | 19.3 µM (inactive) | 1.69 µM (inactive) | 0.532 µM (active) | 8.2 µM (inactive) | 0.778 µM (active) | 13.4 µM (inactive) | 10.6 µM (inactive) | 12.5 µM (inactive) | 5.5 µM (inactive) | 18.9 µM (inactive) | 23.1 µM (inactive) | 5.45 µM (inactive) | 17.7 µM (inactive) | 7.1 µM (inactive) | 1.06 µM (active) | 3.5 µM (inactive) | 15.4 µM (inactive) | 7.96 µM (inactive)
O=[N+]([O-])c1nccn1CCCNCCCn1ccnc1[N+](=O)[O-] | > 100 µM (inactive) | > 100 µM (inactive) | > 100 µM (inactive) | > 100 µM (inactive) | > 100 µM (inactive) | > 100 µM (inactive) | > 100 µM (inactive) | > 100 µM (inactive) | > 100 µM (inactive) | > 100 µM (inactive) | > 100 µM (inactive) | > 100 µM (inactive) | > 100 µM (inactive) | > 100 µM (inactive) | > 100 µM (inactive) | > 100 µM (inactive) | > 100 µM (inactive) | > 100 µM (inactive)
C=CCN(c1cc(OC)c(NC(C)=O)cc1[N+](=O)[O-])S(C)(=O)=O | > 100 µM (inactive) | > 100 µM (inactive) | > 100 µM (inactive) | > 100 µM (inactive) | > 100 µM (inactive) | > 100 µM (inactive) | > 100 µM (inactive) | > 100 µM (inactive) | > 100 µM (inactive) | > 100 µM (inactive) | > 100 µM (inactive) | > 100 µM (inactive) | > 100 µM (inactive) | > 100 µM (inactive) | > 100 µM (inactive) | > 100 µM (inactive) | > 100 µM (inactive) | > 100 µM (inactive)
